In patent US8507538B2, “Selective heterocyclic sphingosine 1 phosphate receptor modulators” (Receptos, Inc., priority 2009, dated 2013):
Read-outs that look alike come from different tables or passages of the source.

How the values were obtained:
S1P2 = molecular target: T1, S1P2 (Homo sapiens, UniProt O95136); assay: Specificity over other S1P receptors: S1P2 CRE-bla CHOK1; type: cell-based; conditions: without Forskolin; read-out: S1P2 agonist value (EC50)
T1 construct: expressed in transfected cells; host or cells: CRE-bla CHOK1
Experimental: (§1) Cells were seeded into 384-well black wall/clear bottom plates at 10^4 cells/well/19.5 μl assay media (DMEM-phenol free, 0.5% charcoal/dextran stripped serum, 2 mM glutamine, 0.1 mM NEAA, 1 mM Na-Pyruvate, 25 mM Hepes) and incubated for 18 hrs at 37° C. in 5% CO2. Dose response curves (10-point) were generated in 10 mM Hepes, 0.1% Pluronic F127, in the presence of Forskolin. Cells were treated with 0.5 μl compound in the presence of 2 μM Forskolin for 4 hrs at 37° C. The FRET-based β-lactamase fluorescent substrate (LiveBLAzer™ FRET B/G Loading Kit CC4-AM; Invitrogen) was prepared according to manufacturer's directions, and incubated with cells for 2 hrs at room temperature. Plates were read at Ex:410/Em:458 and Ex:410/Em:522, and the response ratio determined. Data was analyzed by non-linear regression to determine the EC50 for inhibition of Forskolin induced cAMP.
(§2) To assess compound specificity on other S1P receptors the following cell lines were used: S1P2 CRE-bla CHOK1, S1P3-Gα15 NFAT-bla HEK293T (Invitrogen), S1P4-bla TANGO U2OS (Invitrogen), S1P5-bla TANGO U2OS (Invitrogen). The same assay set up for S1P1 was used but without Forskolin. S1P4 and S1P5 assays were performed in FreeStyle Expression medium (Invitrogen). S1P5 cells were incubated for 48 hrs in prior to treatment with compound.

[1] = system: CD4 or CD8 positive T cells; assay: Lymphopenia in rats; type: in vivo; conditions: rat, 24 h after a 0.2 mg/kg single dose; for inhibition in vivo at 0.2 mg/kg: CD8 positive, po
Experimental: In rats: Female rats (Simonsen Laboratories, Gilroy Calif.) were housed in an ALAAC accredited facility and the research was approved by the facilities Institutional Animal Care and Use Committee (IACUC). The animals were acclimated to the laboratory for at least 5 days prior to initiation of experiments. Rats (n=3/compound/time-point) were dosed by oral gavage with 1 mg/kg compound formulated in a vehicle consisting of 5% DMSO/5% Tween 20 and 90% 0.1N HCL. Control rats were dosed PO with the vehicle. Whole blood was collected from isoflurane anesthetized rats via the retro-orbital sinus and terminal samples were collected by cardiac puncture into EDTA. Whole blood was incubated with mouse anti-rat CD32 (BD #550271), PE-mouse anti-rat CD45R/B220 (BD #554881), PECy5-mouse anti-rat CD4 (BD #554839), and APC-mouse anti-rat CD8a (eBioscience #17-0084) for 30 minutes on ice. Red blood cells were lysed using BD Pharm. Lyse Lysing buffer (#555899) and white blood cells were analyzed with a BD FACSArray. Lymphopenia was expressed as the % of white blood cells that were CD4 or CD8 positive T cells. The overall lymphopenia response over 24 h was estimated by calculating the area under the effect curve (AUEC) using the linear trapezoidal rule. In some experiments, total lymphocyte counts were determined using a standard impediance based veterinary hematology analyzer (IDEXX Preclinical Research Services, Sacramento, Calif.).
The percentage of lymphopenia at 24 h after a 0.2 mg/kg single dose regiment is reported. […] N/A is not available.

S1P3 = molecular target: T2, S1P3 (Homo sapiens, UniProt Q99500); assay: Specificity over other S1P receptors: S1P3-Gα15 NFAT-bla HEK293T; type: cell-based; conditions: without Forskolin; read-out: S1P3 agonist value (EC50)
T2 construct: host or cells: NFAT-bla HEK293T co-expressing Gα15
Experimental: as §1, §2

S1P1/EDG1 = S1P1/EDG1 (Homo sapiens, UniProt P21453); assay: S1P1 CRE-bla CHOK1 reporter assay (inhibition of Forskolin induced cAMP); type: cell-based
Outline: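 Stable CRE-bla CHO-K1 clone expressing human S1P1, serum-starved (0.5% stripped serum) 18 h, then treated with compound (10-point curve) plus 2 μM forskolin for 4 h at 37 °C. β-lactamase FRET ratio (458/522 nm) read after 2 h substrate loading; EC50 for inhibition of forskolin-induced cAMP by non-linear regression.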

S1P5 = molecular target: T3, S1P5 (Homo sapiens, UniProt Q9H228); assay: Specificity over other S1P receptors: S1P5-bla TANGO U2OS; type: cell-based; conditions: without Forskolin, FreeStyle Expression medium; read-out: S1P5 agonist value (EC50)
T3 construct: Tango fusion (own knowledge: TEV protease site + GAL4-VP16 transcription factor fused to the receptor's C-terminus); host or cells: Tango bla U2OS
Experimental: as §1, §2

S1P4 = molecular target: T4, S1P4 (Homo sapiens, UniProt O95977); assay: Specificity over other S1P receptors: S1P4-bla TANGO U2OS; type: cell-based; conditions: without Forskolin, FreeStyle Expression medium; read-out: S1P4 agonist value (EC50)
T4 construct: Tango fusion (own knowledge: TEV protease site + GAL4-VP16 transcription factor fused to the receptor's C-terminus); host or cells: Tango bla U2OS
T4 sequence (O95977 1-384): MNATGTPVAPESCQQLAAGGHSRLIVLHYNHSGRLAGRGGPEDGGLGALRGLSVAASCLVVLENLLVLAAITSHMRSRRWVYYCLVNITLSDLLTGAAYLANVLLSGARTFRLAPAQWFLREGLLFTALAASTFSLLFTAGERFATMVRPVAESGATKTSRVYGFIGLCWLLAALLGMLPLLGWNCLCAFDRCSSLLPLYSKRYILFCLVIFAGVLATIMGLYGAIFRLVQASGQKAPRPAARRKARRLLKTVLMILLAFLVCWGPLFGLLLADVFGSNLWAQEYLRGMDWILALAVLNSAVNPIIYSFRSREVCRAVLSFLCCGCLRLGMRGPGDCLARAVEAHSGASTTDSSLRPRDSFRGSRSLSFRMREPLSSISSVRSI
Experimental: as §1, §2

[2] = system: CD4 or CD8 positive T cells; assay: Lymphopenia in rats; type: in vivo; conditions: rat, at 24 h after a 3-5 day dosing regimen
[3] = Table 3, read-out: S1P1 agonist value (EC50)
[4] = agonist activity range, Table 2, read-out: S1P1 ACTIVITY

T3 sequence (Q9H228 whole entry, the tested form may be a part): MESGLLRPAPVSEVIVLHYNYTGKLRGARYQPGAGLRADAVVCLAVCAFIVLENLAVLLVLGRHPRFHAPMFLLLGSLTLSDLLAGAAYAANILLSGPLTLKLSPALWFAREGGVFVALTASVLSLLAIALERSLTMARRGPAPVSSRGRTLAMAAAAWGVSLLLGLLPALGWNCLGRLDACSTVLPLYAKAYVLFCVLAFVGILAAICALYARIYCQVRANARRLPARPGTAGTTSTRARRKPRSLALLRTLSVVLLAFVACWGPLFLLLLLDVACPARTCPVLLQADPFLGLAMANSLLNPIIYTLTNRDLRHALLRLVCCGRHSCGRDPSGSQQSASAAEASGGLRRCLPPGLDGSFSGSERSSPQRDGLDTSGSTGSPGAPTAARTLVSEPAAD
S1P1/EDG1, sequence (P21453 whole entry): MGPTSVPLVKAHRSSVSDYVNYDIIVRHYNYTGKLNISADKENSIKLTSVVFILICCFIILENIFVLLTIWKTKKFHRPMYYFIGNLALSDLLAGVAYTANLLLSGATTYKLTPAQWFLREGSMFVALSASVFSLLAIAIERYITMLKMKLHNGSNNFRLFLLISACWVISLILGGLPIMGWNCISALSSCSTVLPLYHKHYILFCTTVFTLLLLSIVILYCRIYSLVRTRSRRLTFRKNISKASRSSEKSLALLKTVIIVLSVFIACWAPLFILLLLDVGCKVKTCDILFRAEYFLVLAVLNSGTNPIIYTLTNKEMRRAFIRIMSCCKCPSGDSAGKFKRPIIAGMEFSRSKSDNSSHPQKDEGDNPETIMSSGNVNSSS
T2 sequence (Q99500 whole entry): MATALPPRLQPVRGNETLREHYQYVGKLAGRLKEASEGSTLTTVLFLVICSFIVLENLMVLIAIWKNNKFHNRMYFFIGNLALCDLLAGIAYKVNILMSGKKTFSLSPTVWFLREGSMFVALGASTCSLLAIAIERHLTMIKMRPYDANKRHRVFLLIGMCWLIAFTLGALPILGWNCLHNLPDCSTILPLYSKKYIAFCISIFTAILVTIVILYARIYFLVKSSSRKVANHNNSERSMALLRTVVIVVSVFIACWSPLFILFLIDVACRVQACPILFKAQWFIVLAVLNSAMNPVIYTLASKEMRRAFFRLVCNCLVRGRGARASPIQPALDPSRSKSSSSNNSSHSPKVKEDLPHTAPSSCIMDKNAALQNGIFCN
T1 sequence (O95136 whole entry, species assumed): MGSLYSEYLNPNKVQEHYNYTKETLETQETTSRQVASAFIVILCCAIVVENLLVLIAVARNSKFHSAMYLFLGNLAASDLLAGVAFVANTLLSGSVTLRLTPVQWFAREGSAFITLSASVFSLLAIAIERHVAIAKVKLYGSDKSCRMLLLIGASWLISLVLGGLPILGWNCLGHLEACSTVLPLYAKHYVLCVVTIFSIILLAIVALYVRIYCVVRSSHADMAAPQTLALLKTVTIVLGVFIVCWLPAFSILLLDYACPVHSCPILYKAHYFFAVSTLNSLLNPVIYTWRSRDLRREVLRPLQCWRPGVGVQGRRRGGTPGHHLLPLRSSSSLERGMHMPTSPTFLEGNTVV

**Q.** How did the EC50 (S1P2) turn out when `CC(C)Oc1ccc(-c2nnc(-c3cccc4c3CC[C@@H]4NS(N)(=O)=O)s2)cc1C#N` [Compound 47, (S)-N-(4-(5-(3-cyano-4-isopropoxyphenyl)-1,3,4-thiadiazol-2-yl)-2,3-dihydro-1H-inden-1-yl)sulfamide] was run?
**A.** > 10000 nM

**Q.** And the inhibition in vivo at 0.2 mg/kg [1]?
**A.** 17%

**Q.** And the EC50 (S1P3)?
**A.** > 10000 nM

**Q.** And the EC50 (S1P1/EDG1; [3])?
**A.** 0.03 nM

**Q.** What about the EC50 (S1P1/EDG1; [4]) of the same compound?
**A.** < 0.05 nM

**Q.** What about the EC50 (S1P5) of the same compound?
**A.** 22 nM

**Q.** And the EC50 (S1P4)?
**A.** > 10000 nM

**Q.** What does the source list for `CC(C)Oc1ccc(-c2ncc(-c3cccc4c3CC[C@H]4NC(=O)N3CCOCC3)s2)cc1C#N` [Compound 186, (R)-N-(4-(2-(3-cyano-4-isopropoxyphenyl)thiazol-5-yl)-2,3-dihydro-1H-inden-1-yl)morpholine-4-carboxamide]?
**A.** inhibition in vivo at 0.2 mg/kg [1]: 25%; EC50 (S1P3): > 10000 nM; ED50 ([2]; CD8 positive, read-out: ED50, estimated dose needed to produce 50% lymphopenia): 0.2 mg/kg; EC50 (S1P1/EDG1; [3]): 0.41 nM; EC50 (S1P5): 126 nM

**Q.** With `CC(C)Oc1ccc(-c2ccc(-c3cccc4c3CCC4O)s2)cc1C#N` (centres unmarked) [Compound 223, 5-(5-(1-hydroxy-2,3-dihydro-1H-inden-4-yl)thiophen-2-yl)-2-isopropoxybenzonitrile] as the compound, how does the EC50 (S1P1/EDG1; [4]) read?
**A.** 0.5 to 5 nM

**Q.** How did the EC50 (S1P1/EDG1; [4]) turn out when `CC(C)Oc1ccc(-c2ccc(-c3cccc4c3CCC4NCCO)s2)cc1C#N` (centres unmarked) [Compound 224, 5-(5-(1-(2-hydroxyethylamino)-2,3-dihydro-1H-inden-4-yl)thiophen-2-yl)-2-isopropoxybenzonitrile] was run?
**A.** > 5 nM

**Q.** Which EC50 (S1P1/EDG1; [4]) does the source give for `CC(C)Oc1ccc(-c2ccc(-c3cccc4c3CC[C@H]4N)s2)cc1C#N` [Compound 225, (R)-5-(5-(1-amino-2,3-dihydro-1H-inden-4-yl)thiophen-2-yl)-2-isopropoxybenzonitrile] here?
**A.** > 5 nM

**Q.** `CC(C)Oc1ccc(-c2cc(-c3cccc4c3CCC4O)cs2)cc1C#N` (centres unmarked) [Compound 226, 5-(4-(1-hydroxy-2,3-dihydro-1H-inden-4-yl)thiophen-2-yl)-2-isopropoxybenzonitrile] was tested. Which EC50 (S1P1/EDG1; [4]) did it give?
**A.** 0.5 to 5 nM

**Q.** With `CC(C)Oc1ccc(-c2csc(-c3cccc4c3CCC4O)c2)cc1C#N` (centres unmarked) [Compound 227, 5-(5-(1-hydroxy-2,3-dihydro-1H-inden-4-yl)thiophen-3-yl)-2-isopropoxybenzonitrile] as the compound, how does the EC50 (S1P1/EDG1; [4]) read?
**A.** > 5 nM

**Q.** What does the source list for “(R)-2-(N-(4-(5-(3-cyano-4-isopropoxyphenyl)-1,3,4-thiadiazol-2-yl)-2,3-dihydro-1H-inden-1-yl)sulfamoyl)-N,N-dimethylacetamide [Compound 43]”?
**A.** % Lymphopenia after 24 h (0.2 mg/kg) [1]: 40%; EC50 (S1P1/EDG1; [3]): 0.07 nM; EC50 (S1P5): 444 nM

**Q.** With “(R)-N-(4-(2-(3-cyano-4-isopropoxyphenyl)thiazol-5-yl)-2,3-dihydro-1H-inden-1-yl)pyrrolidine-1-carboxamide [Compound 172]” as the compound, how does the “% Lymphopenia after 24 h (0.2 mg/kg)” value [1] read?
**A.** 22%

**Q.** What about the “ED50, estimated dose needed to produce 50% lymphopenia” value [2] of the same compound?
**A.** 0.20 mg/kg

**Q.** Which “% Lymphopenia after 24 h (0.2 mg/kg)” value [1] does the source give for “(R)-N-(4-(2-(3-cyano-4-isopropoxyphenyl)thiazol-5-yl)-2,3-dihydro-1H-inden-1-yl)sulfamide [Compound 166]” here?
**A.** 47%

**Q.** What about the “ED50, estimated dose needed to produce 50% lymphopenia” value [2] of the same compound?
**A.** 0.07 mg/kg

**Q.** What does the source list for “(R)-N-(4-(5-(3-cyano-4-isopropoxyphenyl)-1,3,4-thiadiazol-2-yl)-2,3-dihydro-1H-inden-1-yl)-2-hydroxyethanesulfonamide [Compound 46]”?
**A.** % Lymphopenia after 24 h (0.2 mg/kg) [1]: 39%; EC50 (S1P1/EDG1; [3]): 0.25 nM; EC50 (S1P5): 194 nM; EC50 (S1P4): 2170 nM

**Q.** How did the “% Lymphopenia after 24 h (0.2 mg/kg)” value [1] turn out when “(R)-N-((R)-4-(5-(3-cyano-4-isopropoxyphenyl)-1,3,4-thiadiazol-2-yl)-2,3-dihydro-1H-inden-1-yl)-3-(dimethylamino)pyrrolidine-1-carboxamide [Compound 56]” was run?
**A.** 52%
